Results published in US20250221966A1, “RXFP1 AGONISTS” (BRISTOL-MYERS SQUIBB COMPANY, priority 2021, published 2025).

Each compound was assayed against T1, human RXFP1 (Homo sapiens, UniProt Q9HBX9) (assay: RXFP1 cAMP assay (hRXFP1 HEK293 cAMP assay, HTRF)). Conditions: HEK293 cells stably expressing human RXFP1, 30 min at room temperature, read-out: cAMP hRXFP1 HEK293 Assay EC50.
T1 construct: expressed in transfected cells
T1 sequence (Q9HBX9 1-757): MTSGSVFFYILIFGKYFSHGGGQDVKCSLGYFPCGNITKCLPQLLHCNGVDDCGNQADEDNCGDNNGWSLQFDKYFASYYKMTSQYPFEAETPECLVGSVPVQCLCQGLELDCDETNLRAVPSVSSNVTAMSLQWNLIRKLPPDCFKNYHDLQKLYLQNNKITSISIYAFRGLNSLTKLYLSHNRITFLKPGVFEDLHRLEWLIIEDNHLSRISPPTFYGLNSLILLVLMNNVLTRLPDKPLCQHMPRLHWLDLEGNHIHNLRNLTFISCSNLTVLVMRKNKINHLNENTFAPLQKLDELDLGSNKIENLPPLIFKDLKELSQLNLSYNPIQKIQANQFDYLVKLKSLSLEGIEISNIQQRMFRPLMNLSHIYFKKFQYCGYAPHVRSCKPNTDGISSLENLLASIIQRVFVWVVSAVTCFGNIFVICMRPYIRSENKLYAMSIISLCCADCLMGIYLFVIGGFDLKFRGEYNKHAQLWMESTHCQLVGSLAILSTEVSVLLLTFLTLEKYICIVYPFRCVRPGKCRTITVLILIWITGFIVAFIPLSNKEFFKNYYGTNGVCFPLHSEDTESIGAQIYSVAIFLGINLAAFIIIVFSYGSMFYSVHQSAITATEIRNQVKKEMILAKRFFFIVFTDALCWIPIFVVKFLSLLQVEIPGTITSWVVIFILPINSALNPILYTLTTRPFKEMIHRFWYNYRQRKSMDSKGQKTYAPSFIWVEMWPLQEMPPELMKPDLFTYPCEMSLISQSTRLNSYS
Format: cell-based
Outline: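 In a stable human RXFP1 HEK293 line, compounds acted for 30 min at RT in buffer with 0.5 mM IBMX. HTRF then quantified cellular cAMP.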

Compound | EC50 [nM]
COc1ccc(C2CCOCC2)cc1C(=O)NC1C2CCC(/C2=C/C2CCC2)C1C(=O)Nc1ccc(F)c(C(F)(F)F)c1 (centres unmarked) [compound 369] | 65
COc1cc(F)c(F)cc1C(=O)N[C@@H]1C2CCC(/C2=C/c2ccccn2)[C@@H]1C(=O)Nc1ccc(F)c(C(F)(F)F)c1 (some centres unmarked) [compound 137] | 480
COc1ccc(-c2ccc(C(=O)O)cc2)cc1C(=O)N[C@@H]1C2CCC(/C2=C/C2CC2)[C@@H]1C(=O)Nc1ccc(F)c(C(F)(F)F)c1 (some centres unmarked) [compound 167] | 16
O=C(N[C@H]1[C@@H](C(=O)Nc2ccc(F)c(C(F)(F)F)c2)[C@H]2CC[C@@H]1/C2=C\C1CC1)c1cc(C2=NOC3CC(CO)CC23)cc(F)c1OCC1CC1 (some centres unmarked) [compound 794] | 3.2
COc1ccc(-c2cc(C(=O)Nc3nnn[nH]3)ccc2F)cc1C(=O)N[C@@H]1C2CCC(/C2=C/c2cnoc2)[C@@H]1C(=O)Nc1ccc(F)c(C(F)(F)F)c1 (some centres unmarked) [Example 192] | 135
COc1ccc(C2=NOC3C(O)CCC23)cc1C(=O)N[C@H]1[C@@H](C(=O)Nc2ccc(F)c(C(F)(F)F)c2)[C@H]2CC[C@@H]1/C2=C\C1CC1 (single isomer, unassigned) [compound 483] | 7.3
COc1ccc(C2=NOC(C3(O)CCCC3)C2)cc1C(=O)N[C@H]1[C@@H](C(=O)Nc2ccc(F)c(C(F)(F)F)c2)[C@H]2CC[C@@H]1/C2=C\C1CC1 (single isomer, unassigned) [compound 619] | 156
COC(=O)NC(C(=O)O)c1ccc(F)c(-c2ccc(OC)c(C(=O)N[C@@H]3C4CCC(/C4=C/C(F)(F)F)[C@@H]3C(=O)Nc3ccc(F)c(C(F)(F)F)c3)c2)c1 (some centres unmarked) [compound 185] | 15
COc1ccc(N2CC(CN)CC2=O)cc1C(=O)N[C@H]1[C@@H](C(=O)Nc2ccc(F)c(C(F)(F)F)c2)[C@H]2CC[C@@H]1/C2=C\C1CC1 (some centres unmarked) [compound 712] | 1600
COc1ccc(C2=NOC3(CCNC3)C2)cc1C(=O)N[C@H]1[C@@H](C(=O)Nc2ccc(F)c(C(F)(F)F)c2)[C@H]2CC[C@@H]1/C2=C\C1CC1 (some centres unmarked) [compound 593] | 89.8
COc1ccc(-c2cc(C(=O)O)ccc2F)cc1C(=O)N[C@@H]1C2CCC(/C2=C/c2cn(Cc3ccccc3)nn2)[C@@H]1C(=O)Nc1ccc(F)c(C(F)(F)F)c1 (some centres unmarked) [compound 326] | 2270
COc1ccc(-n2cc(C(NC(=O)C3CCOCC3)C(=O)O)cn2)cc1C(=O)N[C@@H]1C2CCC(/C2=C/C(F)(F)F)[C@@H]1C(=O)Nc1ccc(F)c(C(F)(F)F)c1 (some centres unmarked) [compound 347] | 62
COc1ccc(C2=NOC3C(O)CC(O)C23)cc1C(=O)N[C@H]1[C@@H](C(=O)Nc2ccc(F)c(C(F)(F)F)c2)[C@H]2CC[C@@H]1/C2=C\C1CC1 (single isomer, unassigned) [compound 680] | 582
COc1cc(F)c(F)cc1C(=O)N[C@@H]1C2CCC(/C2=C/c2cccc(OC(F)F)c2)[C@@H]1C(=O)Nc1ccc(F)c(C(F)(F)F)c1 (some centres unmarked) [compound 27] | 380
COc1ccc(C2=NOC3CC(C(C)O)CC23)cc1C(=O)N[C@H]1[C@@H](C(=O)Nc2ccc(F)c(C(F)(F)F)c2)[C@H]2CC[C@@H]1/C2=C\C1CC1 (some centres unmarked) [compound 845] | 1.3
COc1ccc(-c2cc([C@H](OC(=O)NC3CCC3)C(F)(F)F)ccc2F)cc1C(=O)N[C@@H]1C2CCC(/C2=C/C2CCC2)[C@@H]1C(=O)Nc1ccc(F)c(C(F)(F)F)c1 (some centres unmarked) [compound 924] | 5.7
O=C(N[C@H]1[C@@H](C(=O)Nc2ccc(F)c(C(F)(F)F)c2)[C@H]2CC[C@@H]1/C2=C\C1CC1)c1ccc(F)c(C2=NOC3COCC23)c1 (some centres unmarked) [compound 714] | 1750
COc1ccc(C2=NOC(CC(C)(C)O)C2)cc1C(=O)N[C@H]1[C@@H](C(=O)Nc2ccc(F)c(C(F)(F)F)c2)[C@H]2CC[C@@H]1/C2=C\C1CC1 (single isomer, unassigned) [compound 528] | 22.4

Compound | EC50 [nM]
COc1cc(F)c(C2=NOC3COCC23)cc1C(=O)N[C@H]1[C@@H](C(=O)Nc2ccc(F)c(C(F)(F)F)c2)[C@H]2CC[C@@H]1/C2=C\C1CC1 (single isomer, unassigned) [compound 463] | 3.1
O=C(N[C@H]1[C@@H](C(=O)Nc2ccc(F)c(C(F)(F)F)c2)[C@H]2CC[C@@H]1/C2=C\C1CC1)c1cc(C2=NOC3CC(CO)CC23)ccc1F (single isomer, unassigned) [compound 692] | 789
COc1ccc(-c2cc(C3OC(=O)N(C)C3=O)ccc2F)cc1C(=O)N[C@@H]1C2CCC(/C2=C/C2CC2)[C@@H]1C(=O)Nc1ccc(F)c(C(F)(F)F)c1 (some centres unmarked) [compound 173] | 7
COc1ccc(C2=NOC3COCC23)cc1C(=O)N[C@H]1[C@@H](C(=O)N[C@H](C)C2(C)CC2(F)F)[C@H]2CC[C@@H]1/C2=C\C1CC1 (some centres unmarked) [compound 770] | 3.6
COc1ccc(-c2cc([C@@H](C)O)on2)cc1C(=O)N[C@H]1[C@@H](C(=O)Nc2ccc(F)c(C(F)(F)F)c2)[C@H]2CC[C@@H]1/C2=C\C1CC1 [compound 500] | 11
COc1c(F)cc(C2=NOC3CC(CO)CC23)cc1C(=O)N[C@H]1[C@@H](C(=O)N[C@H](C)C2(C)CC2)[C@H]2CC[C@@H]1/C2=C\CC(O)C(F)(F)F (some centres unmarked) [compound 821] | 2.5
COc1ccc(C2=NOC(C(C)(O)C(F)(F)F)C2)cc1C(=O)N[C@H]1[C@@H](C(=O)Nc2ccc(F)c(C(F)(F)F)c2)[C@H]2CC[C@@H]1/C2=C\C1CC1 (single isomer, unassigned) [compound 517] | 18
COc1ccc(C2=NOC(C)(CO)C2)cc1C(=O)N[C@H]1[C@@H](C(=O)Nc2ccc(F)c(C(F)(F)F)c2)[C@H]2CC[C@@H]1C2=CC1CC1 (single isomer, unassigned) [compound 571] | 65.3
COc1ccc(-c2cc([C@H](O)C(F)(F)F)ccc2F)cc1C(=O)N[C@H]1[C@@H](C(=O)Nc2ccc(F)c(C(F)(F)F)c2)[C@H]2CC[C@@H]1/C2=C\C1CCCC1 [compound 920] | 2.4
COc1cc(F)c(F)cc1C(=O)N[C@@H]1C2CCC(/C2=C/C2=CCCCC2)[C@@H]1C(=O)Nc1ccc(F)c(C(F)(F)F)c1 (some centres unmarked) [compound 35] | 30
COc1cc(F)c(F)cc1C(=O)N[C@@H]1C2CCC(/C2=C/c2cccc(C(F)(F)F)c2)[C@@H]1C(=O)Nc1ccc(F)c(C(F)(F)F)c1 (some centres unmarked) [compound 25] | 200
COc1ccc(C2=NO[C@@H]3[C@@H](O)CCN23)cc1C(=O)N[C@H]1[C@@H](C(=O)Nc2ccc(F)c(C(F)(F)F)c2)[C@H]2CC[C@@H]1/C2=C\C1CC1 [compound 857] | 5
COc1cc(C)c(-c2nnc(CO)s2)cc1C(=O)N[C@H]1[C@@H](C(=O)N[C@H](C)C2(C)CC2)[C@H]2CC[C@@H]1/C2=C\C1CC1 [compound 810] | 4.7
COc1ccc(-c2cc(C(=O)O)ccc2F)cc1C(=O)N[C@@H]1C2CCC(/C2=C/C2CC2)[C@@H]1C(=O)NC(C)c1cc(F)ccc1F (some centres unmarked) [compound 307] | 958
COc1ccc(C2=NOC3COCC23)cc1C(=O)N[C@H]1[C@@H](C(=O)N[C@@H]2CCCc3ccccc32)[C@H]2CC[C@@H]1/C2=C\C1CC1 (some centres unmarked) [compound 538] | 26.3
C=C/C=C1\C2CCC1[C@H](C(=O)Nc1ccc(F)c(C(F)(F)F)c1)[C@@H]2NC(=O)c1cc(-c2cc(C(N)=O)ccc2F)ccc1OC (some centres unmarked) [compound 163] | 13
COc1ccc(-c2cnc3n2CC(O)CC3)cc1C(=O)N[C@H]1[C@@H](C(=O)Nc2ccc(F)c(C(F)(F)F)c2)[C@H]2CC[C@@H]1/C2=C\C1CC1 (some centres unmarked) [compound 755] | 5
